Results from patent publication US11008325B2, “Inhibitors of cancer invasion, attachment, and/or metastasis” (VIRGINIA COMMONWEALTH UNIVERSITY, priority 2016, dated 2021).
Entries after “also recorded” stand apart in the source; their conditions may differ.

Columns and labels:
[1] = system: HBMEC barrier over GBM6 cells; experiment: HBMEC transwell blood brain barrier surrogate assay; assay type: in vitro ADME, human; settings: 50 μM PDZ1i, 24 h, read out as GBM6 invasion
Description: FIG. 12. PDZ1i crosses the blood brain barrier (BBB). Primary human malignant glioma cells (GBM6) were seeded on the bottom well of a transwell chamber. In the top chamber, a monolayer of HBMEC cells separated GBM6 cells from media containing DMSO, 50 μM PDZ1i or Temozolomide (500 μM). After 24 h incubation in these conditions, invasion of GBM6 cells were analyzed by seeding in a trans-well Matrigel invasion assay and stained after 24 h. NB: PDZ1i treatment and invasion assay without HBMEC barrier. Error bars=f s.d.
A critical property of a potential therapeutic agent is its stability in the circulation and bioavailability in vivo. […] Additionally, when treating glioma pharmaceutically, the ability for a compound to cross the blood brain barrier (BBB) is paramount. […] Prior to in vivo efficacy studies, we evaluated the ability of the compound to cross the blood brain barrier using a target-based surrogate cellular assay. This method is preferred to direct in vivo measurements of compound concentration in the brain because of low sensitivity of the detection methods, and most importantly because of the presence of drug in various vascular spaces, i.e., the residual blood of the brain. […] After 24 h, we assessed the invasive ability of the treated GBM6 cells compared to pretreated controls. […]

[2] = system: HCC-driven tumor xenograft; experiment: HCC tumor xenograft, alone or with sorafenib; assay type: in vivo, athymic nude mice; settings: in combination with sorafenib, I.P.
Description: FIGS. 48A-48C. Biological effects of PDZ1i in vivo in melanoma, HCC and PC. FIG. 48A) Compounds were administered I.P. 6 times within first two weeks following inoculation (I.V. injection) of B16 cells in C57BL/6 mice to evaluate the anti-metastatic efficacy. FIG. 48B) HCC-driven tumor xenograft was established in athymic nude mice. Compound alone or in combination with Sorafenib were given through I.P. Tumor volumes were considered as an end point of this study. FIG. 48C) Hi-Myc, a mouse model for spontaneous prostate cancer either received the compound or vehicle at the age of 8 weeks (immediate after onset of disease) for total 9 injections (3/week). After 16 weeks from the first injection, prostate were collected and pathologically evaluated. Representative photomicrographs (Left panel) and H and E stained slides (Right panel) from prostate were presented.

U1242-Luc cells = experiment: intracranial U1242-Luc tumors, PDZ1i with or without radiation; assay type: in vivo, nude mice
Description: FIGS. 14A-14F. PDZ1i treatment combined with radiation in an in vivo model of GBM. FIG. 14A. U1242-luc cells were injected intracranially into nude mice. After 7 days mice were randomized to 4 groups, and mice receiving therapy were treated on days 11-14 as pictured. FIG. 14B. Kaplan-Meier survival curves for each treatment group. Median survival as listed. Two brain tissue samples were isolated for each group, sectioned, and H and E staining is shown. FIG. 14C, DMSO treated mice, FIG. 14D, PDZ1i treated mice, FIG. 14E, mice treated with radiation and DMSO; FIG. 14F, mice treated with radiation and PDZ1i.
PDZ1i combined with radiation extends survival and reduces GBM invasion in vivo. We next investigated the combination of PDZ1i with radiotherapy in vivo. U1242-Luc cells were injected intracranially under anesthesia and formed tumors, confirmed by imaging at 7 d post-injection. At this point, mice were randomized to 4 groups: DMSO treatment, PDZ1i treatment (30 mg/kg), DMSO+IR, and PDZ1i+IR. Treatment began on 11 d post-injection and mice receiving radiation were treated with 2.5 Gy for 4 consecutive d. PDZ1i was administered 2 h prior to radiation treatment on each of the 4 treatment d (FIG. 14A). […] To investigate this, brain tissue sections were collected and H & E stains were analyzed. […]

Question: Which “crossing of the HBMEC barrier (blood brain barrier surrogate)” value [1] does the source give for Cc1cc(NC(=O)c2nc3[nH]c4c(c(=O)n3n2)CCC4)c(C)cc1NC(=O)CCc1nnc(-c2ccccc2)o1 [113B7, N-(2,5-dimethyl-4-(3-(5-phenyl-1,3,4-oxadiazol-2-yl)propanamido)phenyl)-8-oxo-5,6,7,8-tetrahydro-4H-cyclopenta[d][1,2,4]triazolo[1,5-a]pyrimidine-2-carboxamide] here?
Answer: Its value is “effectively crossed the HBMEC barrier”.

Question: And the HCC tumor growth [2]?
Answer: The HCC tumor growth was “synergistically inhibited HCC growth; also recorded: inhibit HCC tumor growth”.

Question: What about the average survival (U1242-Luc cells; PDZ1i 30 mg/kg 2 h prior to IR, 2.5 Gy for 4 consecutive d) of the same compound?
Answer: The average survival was 78.8 days.

Question: And the average survival (U1242-Luc cells; PDZ1i 30 mg/kg alone)?
Answer: The average survival was 54.7 days.
